Reference: PMC10385664, “Projection of Target Drug Particle Size in Oral Formulations Using the Refined Developability Classification System (rDCS)” (Pharmaceutics, 2023)

Tested on: Caco-2 cells
Experiment: Caco-2 permeability assay (pH 6.5/7.4 gradient, ± elacridar)
Conditions: Caco-2, 10 µM, apical pH 6.5 / basolateral pH 7.4, 120 min, without inhibitor
Method: In vitro permeability studies were performed at Cyprotex Discovery Ltd. (Macclesfield, UK) using a high-throughput Caco-2 permeability assay. Permeability at 37 °C was assessed from the apical to basolateral side (A⟹B) and in opposite direction (B⟹A) applying a pH gradient with pH 6.5 in the apical and pH 7.4 in the basolateral compartment (Hanks Balanced Salt Solution, HBSS). After an incubation of 120 min, samples were diluted for analysis via liquid chromatography coupled with tandem mass spectrometry (LC-MS/MS). […] Experiments were performed in absence and presence of the P-glycoprotein (P-gp) inhibitor elacridar (10 µM) to study transporter-mediated efflux effects. The dosing solutions contained the API (10 µM) in HBSS, and DMSO in a concentration of ≤1% v/v. Lucifer yellow (100 µM) was included as fluorescent integrity marker. Further experimental details are provided in Supplementary Materials.
The apparent permeability coefficients (Papp) were calculated according to Equation (27):(27) Papp=dQ/dt/C0·A where dQ/dt is the permeation rate of the API across the cell monolayer, C0 is the starting concentration of the API in the dosing solution and A is the surface area of the cell monolayer. The efflux ratios (ERs) were calculated from the B⟹A and A⟹B Papp values to estimate whether P-gp mediated efflux was involved in the transport of the APIs. The mass balance (% recovery) was calculated from the sum of the API recovered from the acceptor and donor compartments at the end of the experiment, divided by the initial donor amount.
Table S6. Gradient of the UPLC method for analysis of lemborexant.
Table S7. Gradient of the UPLC method for analysis of istradefylline.
S.2.5. rDCS Standard Investigations: Caco‐2 permeability studies
Caco‐2 cells were obtained from the American Type Culture Collection (ATCC, Manassas, VA, USA) and used between passage numbers 40 to 60. The cells were seeded onto Millipore Multiscreen Transwell plates at a density of 1 x 10^5 cells/cm2 and cultured in Dulbeccoʹs Modified Eagleʹs Medium (DMEM). The medium was changed every two or three days. Ce l l culture was carried out at 37 °C in an atmosphere of 5 % CO2 with a relative humidity of 95 %. The permeability assay was performed on day 20.
In vitro permeability was assessed wit h a high‐throughput Caco‐2 permeability assay. The assay was prepared by rinsing apical and basolateral monolayer surfaces twice with Hanks Balanced Salt Solution (HBSS) at the desired pH and 37 °C. Subsequently, cells in the apical and basolateral compartments were incubated with HBSS at the desired pH for 40 min. A pH gradient with pH 6.5 in the apical compartment and pH 7.4 in the basolateral compartment was applied. Dosing solutions containing the API (10 μ M) were prepared by diluting a concentrated API solution in DMS O with HBSS. The final DMSO concentration was ≤ 1% v/v. Lucifer yellow (100 μM) was included in the dosing solution as fluorescent integrity marker. For the assessment of the permeability from the apical to basolateral side (A⟹B), HBSS in the apical compartment was replaced with the dosing solution. The apical inserts were placed into a companion plat e containing fresh buffer with 1% v/ v DMSO. For the assessment of the permeability from the basolateral to […]
apical side (B⟹A), HBSS was removed from the companion plate and replaced with the solution of drug in HBSS. Fresh HBSS was added to the apical insert, which was then placed into the companion plate.
Experiments were performed in absence and presence of the P‐glycoprotein (P‐gp) inhibitor elacridar (10 μM) to study transporter‐mediated efflux effects. In those experiments, elacridar was included in both compartments during the equilibration time and assay. The starting concentration (C0) was confirmed by sampling from the dosing solution immediately before dosing into the cell pl ates. After incubation of 120 minutes, the apical inserts and companion plates were separated for sampling from both compartments.

## CC(C)NCC(O)COc1cccc2ccccc12 (stereo not shown) [propranolol]
  Papp(A⟹B): 13.0 ± 0.7 ×10^−6 cm/s
